From ChEMBL document CHEMBL5113517, “Structure-Based Design, Optimization, and Evaluation of Potent Stabilized Peptide Inhibitors Disrupting MTDH and SND1 Interaction” (J Med Chem, 2022) come the findings set out here.

Series [1] relates to MDA-MB-231. Description: Cytotoxicity against human MDA-MB-231 cells assessed as reduction in cell viability at 6.25 to 200 uM incubated for 72 hrs by CCK8 assay. The series is classed as functional, cell-based. Conditions: dose 6.25-200 µM. A general note: Tetrazolium dyes change colour on reduction, which living cells bring about.
Series [2] relates to MDA-MB-231. Put plainly: Cell cycle arrest in human MDA-MB-231 cells assessed as accumulation at G0/G1 phase at 50 uM measured after 48 hrs by flow cytometric analysis flow cytometry analysis (reference value: 58.28 %). The series is classed as functional.
Series [3] is described as follows: Drug uptake in human MDA-MB-231 cells assessed as increase in cell penetration at 10 uM incubated for 12 hrs by flow cytometry method. Particulars: mda-mb-231, 12 h. The format is ADME, cell-based. On the technique in general: A flow cytometer gives signals particle by particle.
Series [4] can be described thus: Drug uptake in human MDA-MB-231 cells assessed as increase in colocalization at 10 uM by confocal microscopy. The format is ADME, cell-based. Conditions: mda-mb-231, 10 µM.
In series [5] the test system is MDA-MB-231. Description: Inhibition of GST-tagged MTDH (364 ro 582 residues)/His-tagged SND1 (16 to 339 residues) interaction in human MDA-MB-231 cells measured after 12 hrs by co-immunoprecipitation assay. The series is classed as cell-based.
For series [6], the system named is MDA-MB-468. Put plainly: Cytotoxicity against human MDA-MB-468 cells assessed as reduction in cell viability at 6.25 to 200 uM incubated for 72 hrs by CCK8 assay. The format is functional, cell-based. Conditions: dose 6.25-200 µM.
The test system of series [7] is MDA-MB-468. Put plainly: Cytotoxicity against human MDA-MB-468 cells assessed as reduction in cell viability incubated for 72 hrs by CCK8 assay. The format is functional, cell-based.
The next series relates to MCF-10A. Description: Cytotoxicity against human MCF-10A cells assessed as reduction in cell viability at 6.25 to 200 uM incubated for 72 hrs by CCK8 assay. The series is classed as toxicity, cell-based. Particulars: dose 6.25-200 µM.
Series [8] relates to MDA-MB-231. Description: Antiproliferative activity against human MDA-MB-231 cells assessed as growth inhibition at 100 uM in presence of paclitaxel. The format is functional, cell-based.
For series [9], the system named is MDA-MB-231. Put plainly: Cell cycle arrest in human MDA-MB-231 cells assessed as accumulation at S phase at 100 uM measured after 48 hrs by flow cytometric analysis flow cytometry analysis (reference value: 25.81%). The format is functional.
The subject of series [10] is MDA-MB-231. Description: Cell cycle arrest in human MDA-MB-231 cells assessed as accumulation at S phase at 50 uM measured after 48 hrs by flow cytometric analysis flow cytometry analysis (reference value: 25.88%). The series is classed as functional.
For a further series, the species on record is Homo sapiens. Put plainly: Inhibition of GST-tagged MTDH (364 ro 582 residues)/His-tagged SND1 (16 to 339 residues) (unknown origin) interaction measured after 12 hrs by pull down assay.
Series [11] can be described thus: Binding affinity to MTDH /His-SND1 (unknown origin) expressed in Escherichia coli BL21(DE3) assessed as dissociation constant by fluorescence polarization assay. The arrangement: species or system Homo sapiens.
Series [12] has as its system MDA-MB-231. Description: Cell cycle arrest in human MDA-MB-231 cells assessed as accumulation at G2/M phase at 100 uM measured after 48 hrs by flow cytometric analysis flow cytometry analysis (reference value: 16.38 %). The format is functional.
Series [13] has as its system MDA-MB-231. Put plainly: Cytotoxicity against human MDA-MB-231 cells assessed as reduction in cell viability incubated for 72 hrs by CCK8 assay. The format is functional, cell-based.
Series [14] relates to MDA-MB-231. Description: Cell cycle arrest in human MDA-MB-231 cells assessed as accumulation at G0/G1 phase at 100 uM measured after 48 hrs by propidium iodide based flow cytometry analysis (reference value: 57.81 %). The format is functional.
Series [15] concerns MDA-MB-231. Description: Inhibition of cell migration in human MDA-MB-231 cells measured after 24 to 48 hrs by wound healing assay. The format is functional, cell-based. Particulars: time 24-48 hrs.
In series [16] the test system is MDA-MB-231. Put plainly: Cell cycle arrest in human MDA-MB-231 cells assessed as accumulation at G2/M phase at 50 uM measured after 48 hrs by flow cytometric analysis flow cytometry analysis (reference value: 15.84 %). The series is classed as functional.
Series [17] concerns MDA-MB-231. Description: Cytotoxicity against human MDA-MB-231 cells assessed as reduction in cell viability at 100 uM incubated for 72 hrs by CCK8 assay. The series is classed as functional.
A short description of series [18]: Stability of the compound in mouse serum measured after 3 to 7 days by HPLC analysis. The format is ADME, cell-free. Particulars: time 3-7 day.
Series [19] in a line: Toxicity in mouse RBC assessed as induction of hemolysis at 200 uM measured after 1 hr by microplate reader assay. The format is cell-based. Particulars: erythrocyte.

The structures appear in SMILES notation. pKd: −log10 of the molar value. Activity calls are given as the source filed them. No cut-off for these calls is given here. Peptide text beside a SMILES is read from it.

For orientation: pKd means the Kd on a negative log10 scale, so that one unit is a factor of ten. As for `CC(C)[C@H](NC(=O)[C@H](Cc1c[nH]c2ccccc12)NC(=O)[C@H](CC(N)=O)NC(=O)CNC(=O)[C@H](Cc1c[nH]c2ccccc12)NC(=O)[C@H](CCC(=O)O)NC(=O)[C@H](CCC(=O)O)NC(=O)[C@@H]1CNC(=O)[C@@H](NC(=O)[C@H](Cc2c[nH]c3ccccc23)NC(=O)[C@@H](N)CC(=O)O)CC(=O)N[C@@H](C)C(=O)N2CCC[C@H]2C(=O)N1)C(=O)N[C@@H](CC(=O)O)C(=O)N[C@@H](CCC(=O)O)C(N)=O`, the outcome in the series on MDA-MB-231 [1], in the series on MDA-MB-468 [6], in the series on MDA-MB-468 [7], in the series with MDA-MB-231 [8] and in the series with MDA-MB-231 [13] was Active. Besides, the Activity in the series on MDA-MB-231 [2] is 69.94%; with MCF-10A, “Non-Toxic”; with MDA-MB-231 [9] it was 8.32%; with MDA-MB-231 [10], 18.5%; with MDA-MB-231 [12], 10.12%; with MDA-MB-231 [14] it was 81.56%. For the same molecule, the Activity in the series on MDA-MB-231 [16] is given as 11.55%; in the series with MDA-MB-231 [17], 60%; in series [19], “Non-Toxic”. For the same molecule, the Drug uptake result in series [3] and in series [4] was “Active” throughout. Also, the inhibition entry in the series on MDA-MB-231 [5], in the series filed under Homo sapiens and in the series on MDA-MB-231 [15] was “Active” each time. In addition, in series [11], the pKd is 7.13. Further, the Stability result in series [18] is on record as “Stable”.
For the molecule `CC(C)[C@H](NC(=O)[C@H](Cc1c[nH]c2ccccc12)NC(=O)[C@H](CC(N)=O)NC(=O)CNC(=O)[C@H](Cc1c[nH]c2ccccc12)NC(=O)[C@H](CCC(=O)O)NC(=O)[C@H](CCC(=O)O)NC(=O)[C@H](C)NC(=O)[C@@H]1CCCN1C(=O)[C@H](C)NC(=O)[C@H](CC(N)=O)NC(=O)[C@H](Cc1c[nH]c2ccccc12)NC(=O)[C@@H](N)CC(=O)O)C(=O)N[C@@H](CC(=O)O)C(=O)N[C@@H](CCC(=O)O)C(=O)O` (H-DWNAPAEEWGNWVDE-OH), the Activity in the series with MDA-MB-231 [2] turned out to be 60.42%; in the series with MDA-MB-231 [9], 22.66%; in the series on MDA-MB-231 [10], 22.86%; in the series on MDA-MB-231 [12], 15.55%; with MDA-MB-231 [14], 61.79%; in the series with MDA-MB-231 [16], 16.7%. In addition, the Drug uptake entry in series [3] and in series [4] was “Active” in each case. Also, the pKd in series [11] is 7.25.
